Experimental data from the NIST ThermoML archive (doi:10.1021/je900969u).

Columns and labels:
[1] = xn = mol fraction of the nth substance listed; conditions: 101 kPa, Liquid
[2] = 101 kPa, Liquid

CCCCCCC [heptane] + CN1CCNCC1
[1], x2 = 0
Conditions	mass density [kg/m3]	viscosity [mPa·s]
298.15 K	679.72	0.404
303.15 K	675.46	0.383
313.15 K	666.84	0.342

CN1CCNCC1 [N-methylpiperazine]
[2]
Conditions	mass density [kg/m3]	viscosity [mPa·s]
298.15 K	899.28	1.856
303.15 K	894.9	1.544
313.15 K	886.07	1.25

CC1CCCCC1 [methylcyclohexane]
[2]
Conditions	mass density [kg/m3]	viscosity [mPa·s]
298.15 K	765	0.719
303.15 K	760.67	0.655
313.15 K	751.94	0.573

CN1CCNCC1 [N-methylpiperazine] + CC1CCCCC1
[1]
Conditions	mass density, 298.15 K [kg/m3]	mass density, 303.15 K [kg/m3]	mass density, 313.15 K [kg/m3]	viscosity, 298.15 K [mPa·s]	viscosity, 303.15 K [mPa·s]	viscosity, 313.15 K [mPa·s]
x1 = 0.0988	775.01	770.65	761.89	0.716	0.676	0.582
x1 = 0.1972	785.84	781.44	772.64	0.751	0.698	0.604
x1 = 0.297	797.52	793.12	784.26	0.801	0.73	0.634
x1 = 0.3964	811.57	805.63	796.74	0.867	0.776	0.674
x1 = 0.4953	822.93	818.51	809.59	0.945	0.84	0.725
x1 = 0.5948	836.59	832.17	823.26	1.057	0.918	0.791
x1 = 0.6952	850.68	846.26	837.34	1.19	1.022	0.868
x1 = 0.7969	865.9	861.49	852.58	1.362	1.164	0.97
x1 = 0.8977	881.36	876.96	868.08	1.585	1.326	1.087
x1 = 1	899.28	894.9	886.07	1.856	1.544	1.25

CCCCCCC [heptane]
[2]
Conditions	mass density [kg/m3]	viscosity [mPa·s]
298.15 K	679.72	0.404
303.15 K	675.46	0.383
313.15 K	666.84	0.342

CN1CCNCC1 [N-methylpiperazine] + CCCCCCC
[1]
Conditions	mass density, 298.15 K [kg/m3]	mass density, 303.15 K [kg/m3]	mass density, 313.15 K [kg/m3]	viscosity, 298.15 K [mPa·s]	viscosity, 303.15 K [mPa·s]	viscosity, 313.15 K [mPa·s]
x1 = 0.1006	695.86	691.57	682.9	0.429	0.395	0.36
x1 = 0.2012	713.24	708.91	700.2	0.466	0.438	0.389
x1 = 0.3006	731.62	727.27	718.49	0.511	0.481	0.424
x1 = 0.4014	751.5	747.13	738.3	0.571	0.533	0.467
x1 = 0.5007	772.43	768.04	759.18	0.648	0.599	0.527
x1 = 0.5996	794.38	789.99	781.1	0.756	0.699	0.603
x1 = 0.7	818.02	813.61	804.71	0.905	0.815	0.691
x1 = 0.7979	842.73	838.32	829.43	1.094	0.995	0.826
x1 = 0.9036	871.01	866.62	857.75	1.474	1.234	1.024
x1 = 1	899.28	894.9	886.07	1.856	1.544	1.25

CC1CCCCC1 [methylcyclohexane] + CN1CCNCC1
[1], x2 = 0
Conditions	mass density [kg/m3]	viscosity [mPa·s]
298.15 K	765	0.719
303.15 K	760.67	0.655
313.15 K	751.94	0.573
